# Assay results published in patent US7563895B2, “Quinoxaline compounds” (Janssen Pharmaceutica, N.V., priority 2003, dated 2009).
# Target: T1, CCK2 receptor (Homo sapiens, UniProt P32239)
# T1 construct: Membranes were prepared from the HEKZFP cells after induction; endogenous in cells; host or cells: HEKZFP cells (T-REx-293 with tet-inducible ZFP-VP16 specific for the CCK2R gene), doxycycline-induced; membrane preparation
# T1 sequence (P32239 1-447): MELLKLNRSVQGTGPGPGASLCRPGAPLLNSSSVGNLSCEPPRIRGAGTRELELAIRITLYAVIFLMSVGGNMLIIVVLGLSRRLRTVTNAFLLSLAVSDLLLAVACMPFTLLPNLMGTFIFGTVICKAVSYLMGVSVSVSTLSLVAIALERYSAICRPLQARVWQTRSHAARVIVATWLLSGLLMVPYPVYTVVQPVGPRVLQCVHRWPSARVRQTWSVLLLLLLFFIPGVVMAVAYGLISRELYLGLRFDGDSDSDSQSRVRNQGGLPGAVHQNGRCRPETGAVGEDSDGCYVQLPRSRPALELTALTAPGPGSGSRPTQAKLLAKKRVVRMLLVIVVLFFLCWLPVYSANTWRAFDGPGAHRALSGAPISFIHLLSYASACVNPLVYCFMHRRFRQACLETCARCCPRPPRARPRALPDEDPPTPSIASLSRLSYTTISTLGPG
# Assay: CCK2 receptor radioligand binding assay ([125I]-BH-CCK-8S, HEKZFP cell membranes)
# Conditions: competition with [125I]-BH-CCK-8S, membranes of induced HEKZFP cells, 60 min at 21±3° C., Cheng-Prusoff
# Procedure: Zinc Finger Proteins (ZFP) specific for the CCK2R gene were identified by Sangamo Biosciences. The ZFP domain was fused with the herpes simplex virus VP16 activation domain, and the fusion protein was subsequently cloned into the pcDNA3 mammalian expression vector (Invitrogen, San Diego, Calif.). […] After 2 weeks of selection in culture medium containing […] Zeocin (Invitrogen), sixty drug-resistant stable clones were isolated and analyzed for ZFP expression as well as CCK2R induction upon addition of doxycycline to the culture medium.
# HEKZFP cells were grown in DMEM supplemented with L-glutamine (2 mM), penicillin (50 units/mL) and streptomycin (50 μg/mL) and 10% FBS (v/v).
# Membranes were prepared from the HEKZFP cells after induction. […] The thawed pellets were homogenized using a Polytron PT-10 (7×1 s). The homogenates were centrifuged for 5 min at 1500 rpm (600×g), and the resulting pellets were discarded. The supernatants were re-centrifuged in order to collect the receptor-membrane pellets (25 min 15,000 rpm; 39,800×g), which were re-suspended in buffer A.
# The assay preparation was incubated for 1 h at 21±3° C., and then the assay was terminated by rapid filtration of the preparation under reduced pressure. The loaded filters were washed three times using undiluted PBS (100 μL), and then 100 μL of scintillation fluid was added to the filter plate. Bound radioactivity was determined using a Topcount (Packard BioScience, Meriden, Conn.) with a count time of 1 min. […] To validate the radioligand concentration and incubation time for the assay, saturation and kinetic binding studies were also conducted (see M. F. Morton, The Pharmacological Characterization of Cholecystokinin Receptors in the Human Gastrointestinal Tract. PhD Thesis, University of London, 2000). […] The assay was then terminated according to the procedure outlined above.
# The pKi values were determined using the equation of Y.-C.
# To circumvent problems associated with computer-assisted data analysis of compounds with low affinity, the data obtained in the current study were weighed according to a method described by Morton. In brief, 100% and 0% specific binding were defined independently using total binding and binding obtained in the presence of a high concentration of the reference antagonist, 2-NAP.
SMILES,Ki [µM],pKi
"CN(Cc1ccc(F)cc1)C(=O)c1ccc(I)cc1NS(=O)(=O)c1cccc2nccnc12 [Example 35, N-(4-Fluorobenzyl)-4-iodo-N-methyl-2-(quinoxaline-5-sulfonylamino)-benzamide]",0.0158,
"C[C@@H](NC(=O)c1ccc(C(F)(F)F)cc1NS(=O)(=O)c1cccc2nccnc12)c1ccc(F)cc1F [Example 36, (R)—N-[1-(2,4-Difluorophenyl)ethyl]-2-(quinoxaline-5-sulfonylamino)-4-trifluoromethylbenzamide]",0.0251,
"C[C@@H](NC(=O)c1ccc(F)cc1NS(=O)(=O)c1cccc2nccnc12)c1ccc(Cl)cc1Cl [Example 37, (R)—N-[1-(2,4-Dichlorophenyl)-ethyl]-4-fluoro-2-(quinoxaline-5-sulfonylamino)-benzamide]",0.2,
"C[C@@H](NC(=O)c1ccc(C#N)cc1NS(=O)(=O)c1cccc2nccnc12)c1ccc(F)cc1F [Example 38, (R)-4-Cyano-N-[1-(2,4-difluoro-phenyl)ethyl]-2-(quinoxaline-5-sulfonylamino)-benzamide]",0.316,
"O=C(c1ccc(Br)cc1NS(=O)(=O)c1cccc2nccnc12)N1CCOc2cc(F)ccc2C1 [Example 39, Quinoxaline-5-sulfonic acid [5-bromo-2-(8-fluoro-2,3-dihydro-5H-benzo[f][1,4]oxazepine-4-carbonyl)phenyl]-amide]",0.0794,
"O=C(c1ccc(Cl)cc1NS(=O)(=O)c1cccc2nccnc12)N1CCOc2cc(F)cc(F)c2C1 [Example 40, Quinoxaline-5-sulfonic acid [5-chloro-2-(6,8-difluoro-2,3-dihydro-5H-benzo[f][1,4]oxazepine-4-carbonyl)-phenyl]-amide]",0.251,
"CN(Cc1ccccc1)C(=O)c1ccc(I)cc1NS(=O)(=O)c1cccc2nccnc12 [Example 42, N-Benzyl-4-iodo-N-methyl-2-(quinoxaline-5-sulfonylamino)-benzamide]",0.0251,
"C[C@@H](NC(=O)c1ccc(Cl)cc1NS(=O)(=O)c1cccc2nccnc12)c1ccc(Cl)cc1Cl [Example 43, (R)-4-Chloro-N-[1-(2,4-dichloro-phenyl)-ethyl]-2-(quinoxaline-5-sulfonylamino)-benzamide]",0.01,
"CN(Cc1ccc(F)cc1)C(=O)c1ccc(Br)cc1NS(=O)(=O)c1cccc2nccnc12 [Example 45, 4-Bromo-N-(4-fluoro-benzyl)-N-methyl-2-(quinoxaline-5-sulfonylamino)-benzamide]",0.0316,
"CN(Cc1ccc(Cl)cc1)C(=O)c1ccc(I)cc1NS(=O)(=O)c1cccc2nccnc12 [Example 48, N-(4-Chloro-benzyl)-4-iodo-N-methyl-2-(quinoxaline-5-sulfonylamino)-benzamide]",0.02,
"CC(NC(=O)c1ccc(Br)cc1NS(=O)(=O)c1cccc2nccnc12)c1ccc(Cl)cc1 (stereo not drawn) [Example 50, 4-Bromo-N-[1-(4-chloro-phenyl)-ethyl]-2-(quinoxaline-5-sulfonylamino)-benzamide]",0.0631,
"CC(NC(=O)c1ccc(Br)cc1NS(=O)(=O)c1cccc2nccnc12)c1ccc(F)cc1 (stereo not drawn) [Example 53, 4-Bromo-N-[1-(4-fluoro-phenyl)-ethyl]-2-(quinoxaline-5-sulfonylamino)-benzamide]",0.0251,
"CC(NC(=O)c1ccc(I)cc1NS(=O)(=O)c1cccc2nccnc12)c1ccc(F)cc1 (stereo not drawn) [Example 54, N-[1-(4-Fluoro-phenyl)-ethyl]-4-iodo-2-(quinoxaline-5-sulfonylamino)-benzamide]",0.0398,
"O=C(NCc1ccc(F)cc1F)c1ccc(I)cc1NS(=O)(=O)c1cccc2nccnc12 [Example 57, N-(2,4-Difluoro-benzyl)-4-iodo-2-(quinoxaline-5-sulfonylamino)-benzamide]",,7.4
"O=C(NCc1ccc(Cl)cc1Cl)c1ccc(Cl)cc1NS(=O)(=O)c1cccc2nccnc12 [Example 58, 4-Chloro-N-(2,4-dichloro-benzyl)-2-(quinoxaline-5-sulfonylamino)-benzamide]",0.0631,
"O=C(NCc1ccc(F)cc1Cl)c1ccc(Cl)cc1NS(=O)(=O)c1cccc2nccnc12 [Example 61, 4-Chloro-N-(2-chloro-4-fluoro-benzyl)-2-(quinoxaline-5-sulfonylamino)-benzamide]",0.0398,
"C[C@H](c1ccccc1)N(C)C(=O)c1ccc(Cl)cc1NS(=O)(=O)c1cccc2nccnc12 [Example 62, (R)-4-Chloro-N-methyl-N-(1-phenyl-ethyl)-2-(quinoxaline-5-sulfonylamino)-benzamide]",0.0158,
"C[C@@H](NC(=O)c1ccc(I)cc1NS(=O)(=O)c1cccc2nccnc12)c1ccc(F)cc1 [Example 63, (R)-N-[1-(4-Fluoro-phenyl)-ethyl]-4-iodo-2-(quinoxaline-5-sulfonylamino)-benzamide]",0.0316,
"C[C@@H](NC(=O)c1ccc(I)cc1NS(=O)(=O)c1cccc2nccnc12)c1ccc(Cl)cc1Cl [Example 64, (R)-N-[1-(2,4-Dichloro-phenyl)-ethyl]-4-iodo-2-(quinoxaline-5-sulfonylamino)-benzamide]",0.0251,
"C[C@H](NC(=O)c1ccc(I)cc1NS(=O)(=O)c1cccc2nccnc12)c1ccc(Cl)cc1Cl [Example 66, (S)-N-[1-(2,4-Dichloro-phenyl)-ethyl]-4-iodo-2-(quinoxaline-5-sulfonylamino)-benzamide]",0.0501,
"O=C(N[C@H](CF)c1ccc(F)cc1)c1ccc(Br)cc1NS(=O)(=O)c1cccc2nccnc12 [Example 71, (S)-4-Bromo-N-[2-fluoro-1-(4-fluoro-phenyl)-ethyl]-2-(quinoxaline-5-sulfonylamino)-benzamide]",0.0794,
"O=C(N[C@H](CF)c1ccc(F)cc1)c1ccc(Cl)cc1NS(=O)(=O)c1cccc2nccnc12 [Example 72, (S)-4-Chloro-N-[2-fluoro-1-(4-fluoro-phenyl)-ethyl]-2-(quinoxaline-5-sulfonylamino)-benzamide]",0.1,
"O=C(N[C@H](CF)c1ccc(F)cc1)c1ccc(I)cc1NS(=O)(=O)c1cccc2nccnc12 [Example 73, (S)-N-[2-Fluoro-1-(4-fluoro-phenyl)-ethyl]-4-iodo-2-(quinoxaline-5-sulfonylamino)-benzamide]",0.0794,
"O=C(NC(CF)c1ccc(F)cc1F)c1ccc(Br)cc1NS(=O)(=O)c1cccc2nccnc12 (stereo not drawn) [Example 74, 4-Bromo-N-[1-(2,4-difluoro-phenyl)-2-fluoro-ethyl]-2-(quinoxaline-5-sulfonylamino)-benzamide]",0.0316,
"O=C(NC(CF)c1ccc(F)cc1F)c1ccc(I)cc1NS(=O)(=O)c1cccc2nccnc12 (stereo not drawn) [Example 75, N-[1-(2,4-Difluoro-phenyl)-2-fluoro-ethyl]-4-iodo-2-(quinoxaline-5-sulfonylamino)-benzamide]",0.0631,
"O=C(N[C@H](CF)c1ccc(F)cc1F)c1ccc(Br)cc1NS(=O)(=O)c1cccc2nccnc12 [Example 76, (S)-4-Bromo-N-[1-(2,4-difluoro-phenyl)-2-fluoro-ethyl]-2-(quinoxaline-5-sulfonylamino)-benzamide]",0.0251,
"O=C(N[C@H](CF)c1ccc(F)cc1F)c1ccc(I)cc1NS(=O)(=O)c1cccc2nccnc12 [Example 77, (S)-N-[1-(2,4-Difluoro-phenyl)-2-fluoro-ethyl]-4-iodo-2-(quinoxaline-5-sulfonylamino)-benzamide]",0.0501,
